Source: US10765114B2, “4-amino-6-(pyridyl and 2-substitutedphenyl)-picolinates and 6-amino-2-(pyridyl and 2-substitutedphenyl)-pyrimidine-4-carboxylates and their use as herbicides” (Dow AgroSciences LLC, priority 2013, dated 2020)

These compounds were tested on Key Broadleaf Weed and Crop Species (assay: Post-Emergent Test II (Table 5)). Settings: Abutilon theophrasti, post-emergence, 336 h, ABUTH: velvetleaf (Abutilon theophrasti), application rate 70 (kg ai/ha; footnote: g ai/ha), read-out: Visual Growth Reduction (%) 14 Days After Application ABUTH.
Type: in vivo
Method in brief: (§1)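 Visual injury ratings (0 = no injury, 100 = complete kill) were taken 14 days after treatment relative to untreated plants. Seedlings at the first or second true leaf stage received an overhead spray at 187 L/ha, and solvent-blank sprayed plants served as controls.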
With `C=Cc1c(-c2cc(N)c(Cl)c(C(=O)OC)n2)ccc(Cl)c1F` [Compound 79, methyl 4-amino-3-chloro-6-(4-chloro-3-fluoro-2-vinylphenyl)picolinate] the pest or weed control at 70 g/ha was 95 to 100%.

Same assay, conditions: Abutilon theophrasti, post-emergence, 336 h, ABUTH: velvetleaf (Abutilon theophrasti), application rate 140 (kg ai/ha; footnote: g ai/ha), read-out: Visual Growth Reduction (%) 14 Days After Application ABUTH
Work on `C=Cc1c(-c2cc(N)c(Cl)c(C(=O)OC)n2)ccc(Cl)c1F` [Compound 79, methyl 4-amino-3-chloro-6-(4-chloro-3-fluoro-2-vinylphenyl)picolinate] yielded a pest or weed control at 140 g/ha of 0 to 29%.

Same assay, conditions: Amaranthus retroflexus, post-emergence, 336 h, AMARE: redroot pigweed (Amaranthus retroflexus), application rate 70 (kg ai/ha; footnote: g ai/ha), read-out: Visual Growth Reduction (%) 14 Days After Application AMARE
`C=Cc1c(-c2cc(N)c(Cl)c(C(=O)OC)n2)ccc(Cl)c1F` [Compound 79, methyl 4-amino-3-chloro-6-(4-chloro-3-fluoro-2-vinylphenyl)picolinate] was tested, and the pest or weed control at 70 g/ha was 95 to 100%.

Same assay, conditions: Amaranthus retroflexus, post-emergence, 336 h, AMARE: redroot pigweed (Amaranthus retroflexus), application rate 140 (kg ai/ha; footnote: g ai/ha), read-out: Visual Growth Reduction (%) 14 Days After Application AMARE
Work on `C=Cc1c(-c2cc(N)c(Cl)c(C(=O)OC)n2)ccc(Cl)c1F` [Compound 79, methyl 4-amino-3-chloro-6-(4-chloro-3-fluoro-2-vinylphenyl)picolinate] yielded a pest or weed control at 140 g/ha of 95 to 100%.

Same assay, conditions: Brassica napus, post-emergence, 336 h, BRSSS: oilseed rape, canola (Brassica napus), application rate 70 (kg ai/ha; footnote: g ai/ha), read-out: Visual Growth Reduction (%) 14 Days After Application BRSSS
For `C=Cc1c(-c2cc(N)c(Cl)c(C(=O)OC)n2)ccc(Cl)c1F` [Compound 79, methyl 4-amino-3-chloro-6-(4-chloro-3-fluoro-2-vinylphenyl)picolinate], the pest or weed control at 70 g/ha was 95 to 100%.

Same assay, conditions: Brassica napus, post-emergence, 336 h, BRSSS: oilseed rape, canola (Brassica napus), application rate 140 (kg ai/ha; footnote: g ai/ha), read-out: Visual Growth Reduction (%) 14 Days After Application BRSSS
Compound `C=Cc1c(-c2cc(N)c(Cl)c(C(=O)OC)n2)ccc(Cl)c1F` [Compound 79, methyl 4-amino-3-chloro-6-(4-chloro-3-fluoro-2-vinylphenyl)picolinate] has a pest or weed control at 140 g/ha of 95 to 100%.

Same assay, conditions: Chenopodium album, post-emergence, 336 h, CHEAL: lambsquarters (Chenopodium album), application rate 70 (kg ai/ha; footnote: g ai/ha), read-out: Visual Growth Reduction (%) 14 Days After Application CHEAL
With `C=Cc1c(-c2cc(N)c(Cl)c(C(=O)OC)n2)ccc(Cl)c1F` [Compound 79, methyl 4-amino-3-chloro-6-(4-chloro-3-fluoro-2-vinylphenyl)picolinate] the pest or weed control at 70 g/ha was 95 to 100%.

Same assay, conditions: Chenopodium album, post-emergence, 336 h, CHEAL: lambsquarters (Chenopodium album), application rate 140 (kg ai/ha; footnote: g ai/ha), read-out: Visual Growth Reduction (%) 14 Days After Application CHEAL
For `C=Cc1c(-c2cc(N)c(Cl)c(C(=O)OC)n2)ccc(Cl)c1F` [Compound 79, methyl 4-amino-3-chloro-6-(4-chloro-3-fluoro-2-vinylphenyl)picolinate], the pest or weed control at 140 g/ha was 95 to 100%.

Same assay, conditions: Euphorbia heterophylla, post-emergence, 336 h, EPHHL: wild poinsettia (Euphorbia heterophylla), application rate 70 (kg ai/ha; footnote: g ai/ha), read-out: Visual Growth Reduction (%) 14 Days After Application EPHHL
With `C=Cc1c(-c2cc(N)c(Cl)c(C(=O)OC)n2)ccc(Cl)c1F` [Compound 79, methyl 4-amino-3-chloro-6-(4-chloro-3-fluoro-2-vinylphenyl)picolinate] the pest or weed control at 70 g/ha was 0 to 29%.

Same assay, conditions: Euphorbia heterophylla, post-emergence, 336 h, EPHHL: wild poinsettia (Euphorbia heterophylla), application rate 140 (kg ai/ha; footnote: g ai/ha), read-out: Visual Growth Reduction (%) 14 Days After Application EPHHL
Work on `C=Cc1c(-c2cc(N)c(Cl)c(C(=O)OC)n2)ccc(Cl)c1F` [Compound 79, methyl 4-amino-3-chloro-6-(4-chloro-3-fluoro-2-vinylphenyl)picolinate] yielded a pest or weed control at 140 g/ha of 0 to 29%.

Same assay, conditions: Helianthus annuus, post-emergence, 336 h, HELAN: sunflower (Helianthus annuus), application rate 70 (kg ai/ha; footnote: g ai/ha), read-out: Visual Growth Reduction (%) 14 Days After Application HELAN
Work on `C=Cc1c(-c2cc(N)c(Cl)c(C(=O)OC)n2)ccc(Cl)c1F` [Compound 79, methyl 4-amino-3-chloro-6-(4-chloro-3-fluoro-2-vinylphenyl)picolinate] yielded a pest or weed control at 70 g/ha of 85 to 94%.

Same assay, conditions: Helianthus annuus, post-emergence, 336 h, HELAN: sunflower (Helianthus annuus), application rate 140 (kg ai/ha; footnote: g ai/ha), read-out: Visual Growth Reduction (%) 14 Days After Application HELAN
`C=Cc1c(-c2cc(N)c(Cl)c(C(=O)OC)n2)ccc(Cl)c1F` [Compound 79, methyl 4-amino-3-chloro-6-(4-chloro-3-fluoro-2-vinylphenyl)picolinate] was tested, and the pest or weed control at 140 g/ha was 85 to 94%.

Same assay, conditions: Viola tricolor, post-emergence, 336 h, VIOTR: wild pansy (Viola tricolor), application rate 70 (kg ai/ha; footnote: g ai/ha), read-out: Visual Growth Reduction (%) 14 Days After Application VIOTR
Compound `C=Cc1c(-c2cc(N)c(Cl)c(C(=O)OC)n2)ccc(Cl)c1F` [Compound 79, methyl 4-amino-3-chloro-6-(4-chloro-3-fluoro-2-vinylphenyl)picolinate] has a pest or weed control at 70 g/ha of 0 to 29%.

Same assay, conditions: Viola tricolor, post-emergence, 336 h, VIOTR: wild pansy (Viola tricolor), application rate 140 (kg ai/ha; footnote: g ai/ha), read-out: Visual Growth Reduction (%) 14 Days After Application VIOTR
For `C=Cc1c(-c2cc(N)c(Cl)c(C(=O)OC)n2)ccc(Cl)c1F` [Compound 79, methyl 4-amino-3-chloro-6-(4-chloro-3-fluoro-2-vinylphenyl)picolinate], the pest or weed control at 140 g/ha was 0 to 29%.

What follows are compounds tested on Key Grass and Sedge Weeds as well as Grass Crops (assay: Post-Emergent Test II (Table 6)). Settings: post-emergence, 336 h, CYPSS, 70 g ai/ha, 14 days after application, read-out: Visual Growth Reduction (%) 14 Days After Application CYPSS.
Type: in vivo
Method in brief: as §1
In the case of `C=Cc1c(-c2cc(N)c(Cl)c(C(=O)OC)n2)ccc(Cl)c1F` [Compound 79, methyl 4-amino-3-chloro-6-(4-chloro-3-fluoro-2-vinylphenyl)picolinate], the pest or weed control at 70 g/ha is reported as 95 to 100%.
